# US10316061B2, “Synthesis of cell penetrating peptides for drug delivery and stem cell applications” (Temple University-Of The Commonwealth System of Higher …, priority 2014, dated 2019)
# Legend:
# ReNcell VM = assay: RT-qPCR analysis of neural marker gene expression in differentiated ReNcell VM; format: cell-based, human
# Procedure: Differentiated stem cells were cultured for 10 weeks.
# The statistical significance was evaluated compared to the control (differentiated ReNcell VM without chemicals) *P<0.05, **P<0.01. GAPDH served as control.
# Total mRNA was extracted using mRNA isolation kit (Ambion, Life Technologies) according to the manufacturer's protocol. For higher yield, neural stem cells from eight wells in the same culture plate were homogenized in cell lysis buffer.
# Concentrations of mRNA samples were evaluated based on OD260/OD280. mRNA samples were reverse transcribed using reverse transcription kit (Applied Biosystems). PCR amplification of cDNA was carried out using universal PCR master mix (Applied Biosystems) and gene-specific primer sets (Applied Biosystems). These primers included neural stem cell (Nestin, SOX2), immature neuron (Tubb3), mature neuron (MAP2), and astrocyte (GFAP) specific genes. GAPDH was used as a control (house keeping gene). The cycles for RT-PCR consisted of 1 second denaturation at 95° C., 20 second annealing at 60° C. RT-PCR products were analyzed using Mastercycler ep realplex 4 (Eppendorf).
# ReNcell VM cells = assay: Immunocytochemistry of Tubb3 / MAP2 protein expression in 4-week differentiated ReNcell VM; format: cell-based, human
# Procedure: FIG. 15. Tubb3 Expression Analysis for 4-Week Differentiated ReNcell VM Cells. ReNcell VM cells were treated with neural stem cell culture medium (control), RA (retinoic acid), RA-PepB, C16-PepB, LiCl, and IFNγ (interferon gamma). Tubb3 proteins expressed in the cells were stained as green and cell nuclei were stained with blue (DAPI).
# FIG. 16. MAP2 Expression Analysis for 4-Week Differentiated ReNcell VM Cells. ReNcell VM treated with cell culture media (control), RA, RA-PepB, C16-PepB, LiCl, and IFNγ (interferon gamma). MAP2 proteins expressed in the cells were stained as green and cell nuclei were stained with blue (DAPI) FIG. 17. Quantitation of Immunocytochemistry Results for Tubb3/MAP2 Proteins. Relative numbers of the cells expressing Tubb3 and MAP2 proteins were counted and normalized to the control group (*P<0.05, **P<0.01).
# The proteins expressed in ReNcell VM cells were visualized with antibodies to study the protein expression by the differentiation of the stem cells in the presence of various soluble factors including RA-PepB and C16-PepB. […] As is shown in FIGS. 15 and 16, Tubb3 or MAP2 expression levels in 4-week differentiated ReNcell VM cells were evaluated via immunocytochemistry (ICC). Protein expression, after antibody staining, was visualized and quantitatively compared by counting Tubb3 or MAP2-positive cells. […]
# HEK293 cells = assay: Live-cell / confocal uptake of ROX-labeled PepA derivatives in HEK293; format: cell-based; settings: HEK293 cultures; ROX dye label
# Text: FIG. 9 is a series of images depicting live-cell uptake of bioactive peptide A (PepA) labeled with the ROX Dye. Bioconjugation with palmitic acid (C16 tail) and/or CPP AAAAEK (PepX) attachments increased cellular uptake in HEK293 cultures.
# FIG. 11 is a series of images depicting laser-scanning confocal microscope imaging of bioactive peptide A (PepA) labeled with the ROX dye. Bioconjugation with palmitic acid (C16 tail) and/or CPP AAAAEK (PepX) attachments increased cellular uptake in HEK293 cultures.
# Bioactive (model) peptide A (PepA) and CPP X (PepX) were synthesized via solid phase peptide synthesis (SPPS) methods (Suh et al., 2001 Comprehen. Biomat 4: 219-245; Suh et al., 2013 Polymer Adhesion, Friction and Lubrication 283-317 (Wiley)). Fmoc-deprotection was performed with organic bases such as 4-methyl piperidine and DBU in DMF at room temperature. Coupling reaction was performed in the presence of Fmoc-protected amino acids with the mixture of coupling reagents and organic bases (e.g., HBTU, HOBt and DIEA). The cleaved peptide from the resin was purified by HPLC, collected, and stored for future uses. HEK293 and ReNcell VM cell lines were maintained and utilized for cellular experiments. Live-Cell imaging analysis was performed on an Olympus IX81 and IX83-DSU wide-field spinning disc confocal microscope equipped with an LCI Chamlide stage-top incubator unit. […]
compound,measurement,setting,value
"CC1=C(/C=C/C(C)=C/C=C/C(C)=C/C(=O)O)C(C)(C)CCC1 [RA, Retinoic acid]",cytotoxicity in differentiation culture (FIG. 6),ReNcell VM; differentiated stem cells cultured for 10 weeks,Highly cytotoxic; low cell count among results
"[Cl-].[Li+] [LiCl, lithium chloride]","Tubb3 expression compared to the control (ICC, positive cell count)",ReNcell VM cells,statistically significant increases
AAAAEK(A) [PepB],neuronal differentiation by qRT-PCR (FIGS. 12 and 13),"ReNcell VM; 1 to 4 weeks of differentiation, GAPDH control",increased neuronal differentiations
same,live-cell uptake (FIG. 9),HEK293 cells,increased cellular uptake of multiple peptides in a synergistic manner
